In one data set the test system is T-cells. The data set is described as follows: Stimulation of T-cell proliferation following primary induction by TCR activation. It counts as cell-based.
In the next data set the test system is TNF-α production. The data set is described as follows: Inhibition of TNF-α production following LPS-stimulation of human PBMC. In kind it is cell-based.
The next data set relates to IL-6 production. The data set is described as follows: LPS-stimulated production of IL-6 by PBMC. In kind it is cell-based.
For another data set, the system named is IL-1β production. The experiment in a line: LPS-stimulated production of IL-1β by PBMC. It counts as cell-based.
Another data set has as its system IL-2 production. The experiment in a line: Augmentation of IL-2 production following TCR activation of PBMC. In kind it is cell-based.
The next data set concerns IFN-γ production. The data set is described as follows: Augmentation of IFN-γ production following TCR activation of T-cells. In kind it is cell-based.
The next data set concerns IL-10 production. The data set is described as follows: LPS-stimulated production of IL-10 by PBMC. In kind it is cell-based.
The conditions of data set [1]: cited from earlier work; for hygroscopicity: polymorphic form, solid state; for stability / interconversion of polymorphic form: solvent system as stated.

Molecules are shown by their SMILES.

As to `Nc1cccc2c1CN(C1CCC(=O)NC1=O)C2=O` (stereo not shown), the “potency relative to thalidomide in stimulating the proliferation of T-cells” value with T-cells was 50-100 times. The “effect on LPS-stimulated production of TNF-α by PBMC” value with TNF-α production was “dose-dependent inhibition”. The “effect on LPS-stimulated production of IL-6 by PBMC” value with IL-6 production is “dose-dependent inhibition”. In the data set on IL-1β production, the “effect on LPS-stimulated production of IL-1β by PBMC” value is listed as “dose-dependent inhibition”. Moreover, the “potency relative to thalidomide in augmenting the production of IL-2” value in the data set with IL-2 production is given as 50-100 times. For the same molecule, the “potency relative to thalidomide in augmenting the production of IFN-γ” value in the data set on IFN-γ production was 50-100 times. Besides, in the data set with IL-10 production, the “effect on production of the anti-inflammatory cytokine IL-10” value is “increased production”.

For `Nc1cccc2c1CN(C1CCC(=O)NC1=O)C2=O` (stereo not shown) [Form A, 3-(4-amino-1-oxo-1,3 dihydro-isoindol-2-yl)-piperidene-2,6-dione], in data set [1], the hygroscopicity entry is reported as “weakly or not hygroscopic” and the “stability / interconversion of polymorphic form” value (“stability / interconversion” for short) is “most thermodynamically stable anhydrous polymorph”.

As to `Nc1cccc2c1CN(C1CCC(=O)NC1=O)C2=O` (stereo not shown) [Form B, 3-(4-amino-1-oxo-1,3 dihydro-isoindol-2-yl)-piperidene-2,6-dione], in data set [1], the “stability / interconversion” value is on record as “converts to Form E in aqueous solvent systems”.

`Nc1cccc2c1CN(C1CCC(=O)NC1=O)C2=O` (stereo not shown) [Form C, 3-(4-amino-1-oxo-1,3 dihydro-isoindol-2-yl)-piperidene-2,6-dione]: the hygroscopicity entry in data set [1] is recorded as “not hygroscopic below about 85% RH”.

With `Nc1cccc2c1CN(C1CCC(=O)NC1=O)C2=O` (stereo not shown) [Form D, 3-(4-amino-1-oxo-1,3 dihydro-isoindol-2-yl)-piperidene-2,6-dione], in data set [1], the hygroscopicity result is given as “either weakly or not hygroscopic”.

Consider `Nc1cccc2c1CN(C1CCC(=O)NC1=O)C2=O` (stereo not shown) [Form E, 3-(4-amino-1-oxo-1,3 dihydro-isoindol-2-yl)-piperidene-2,6-dione], for which the “stability / interconversion” value in data set [1] is reported as “most stable form”.

Values taken from patent publication US20060154880A1, “Methods and compositions using immunomodulatory compounds for treatment and management of parasitic diseases” (priority 2004, published 2006).
